From US11518763B2 (SCOHIA PHARMA, INC., priority 2018, dated 2022) come the findings set out here.

For experiment [1], the target named is T1, binding between NRF2 and KEAP1 (biotinylated human KEAP1 protein (Kelch domain), TAMRA-labeled NRF2 peptide) (Homo sapiens, UniProt Q14145).
T1 construct: biotinylated human KEAP1 protein (Kelch domain); biotin (biotinylated)
As to the kind of experiment: Measurement of activity of inhibiting NRF2 binding (NRF2-KEAP1 TR-FRET). The settings on record: inhibition rate relative to control at 100 nM test compound, TR-FRET, 60 min at room temperature; for inhibition at 0.1 µM: read-out: NRF2 binding inhibitory activity (at 100 nM); for NRF2 binding inhibitory activity (at 100 nM): 0.1 µM. On the procedure:
Test Example 1: Measurement of Activity of Inhibiting NRF2 Binding
The inhibitory activity of test compounds against the binding between NRF2 and KEAP1 was measured by Time Resolved Fluorescence Resonance Energy Transfer (TR-FRET) method. Into a 384 well plate, 2 μL of a compound, 2 μL of 2 nM solution of biotinylated human KEAP1 protein (Kelch domain), 2 μL of 14 nM solution of TAMRA-labeled NRF2 peptide (TAMRA-Abu(4)-VWYTDIRMRDWM-OH), and 2 μL of 2 nM solution of Tb-labeled streptavidin, all solutions diluted with assay buffer (25 mM HEPES, pH7.5, 150 mM NaCl, 0.01% Tween-20), were added. For some wells, the KEAP1 protein was not added to define control wells. The plate was incubated at room temperature for 60 minutes, and time-resolved fluorescence was measured with a plate reader Envision (manufactured by PerkinElmer). The inhibitory activity for each compound at a compound concentration of 100 nM were calculated as a relative activity value by setting the fluorescence intensity of control wells to which the KEAP1 protein was not added as 100% inhibition, and the fluorescence intensity of wells to which no compound was added as 0%.
The measurement results according to the method described above (inhibition rate of signal value relative to control at 100 nM of test compound) are shown in Table 3.

Another experiment concerns Nqo1 mRNA. As to the kind of experiment: Expression of NRF2-downstream gene Nqo1 mRNA in rat kidney and liver after oral administration. In kind it is in vivo. The note with it: 17 h, male SD rats, 3 mg/kg oral, about 17 hours after administration, read-out: Nqo1 mRNA expression (fold change vs vehicle). On the procedure: Test Example 2: Activity of Compound on Expression of NRF2-Downstream Gene in Rat Kidney and Liver
For the NRF2-downstream gene, Nqol mRNA was examined in regard to the expression level in kidney. Compounds were prepared into 0.5% methylcellulose (MC, METOLOSE, Shin-Etsu Chemical Co., Ltd.) suspensions, and were orally administered to male SD rats (CLEA Japan, Inc.) in a dose of 5 mL/kg. About 17 hours after the administration, the rats were euthanized under anesthesia, and their kidneys and livers were collected. By using an extraction kit, QIAsymphony RNA kit (QIAGEN, catalog number 931636) or RNeasy 96 Kit (QIAGEN, catalog number 74182), total RNA was extracted. From the total RNA thus obtained, cDNA was produced by using a cDNA synthesis kit, Superscript IV VIVO Master Mix (Thermo Fisher Scientific, catalog number 11754-250). By using the cDNA thus obtained with Taqman Fast Advanced Master Mix (Thermo Fisher Scientific, catalog number 4444557) or Platinum Quantitative PCR SuperMix (Thermo Fisher Scientific, catalog number 11743-500), and primers and a probe, the sequences of SEQ ID NO:1. SEQ ID NO:2, and SEQ ID NO: 3, which are shown in Table 4, real-time quantitative PCR was conducted with 7900HT Fast Real-Time PCR Systems or ViiA7 Fast Real-Time PCR Systems (Applied Biosystems). The expression level of Nqol mRNA in each organ of the rat to which the vehicle, 0.5% MC solution, was administered is defined as 1, and the variation is shown in Table 5.

Like-named read-outs stand apart in the source and are kept apart here.

T1 sequence (Q14145 321-609 limits assumed): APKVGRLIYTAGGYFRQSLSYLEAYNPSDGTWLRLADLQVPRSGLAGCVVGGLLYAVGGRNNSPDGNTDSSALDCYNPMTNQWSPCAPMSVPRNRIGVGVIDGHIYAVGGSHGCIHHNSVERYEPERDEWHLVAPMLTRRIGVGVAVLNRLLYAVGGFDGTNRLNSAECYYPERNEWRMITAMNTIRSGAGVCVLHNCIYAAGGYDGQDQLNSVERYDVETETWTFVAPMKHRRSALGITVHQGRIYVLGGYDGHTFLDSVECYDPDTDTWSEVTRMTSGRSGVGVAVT

`CCc1cc2ccc1C(=O)N1CCc3ccc(cc3C1)C(CC(=O)O)c1ccc3c(nnn3CCCCC2)c1C` (racemic) [Example 3, [18-Ethyl-32-methyl-20-oxo-8,9,10,21-tetraazahexacyclo[19.5.3.2^16,19.1^3,7.0^6,10.0^24,28]dotriaconta-1(26),3(32),4,6,8,16,18,24,27,30-decaen-2-yl]acetic acid]: the inhibition at 0.1 µM in experiment [1] amounted to 100%. Besides, the fold induction at 3 mg/kg in the experiment on Nqo1 mRNA (Kidney) came out at 4.7.
Consider `Cc1c2ccc3c1nnn3CCCCCc1ccc(c3c1OCC3)C(=O)N1CCc3ccc(cc3C1)C2CC(=O)O` (racemic) [Example 4, [33-Methyl-2-oxo-7-oxa-1,15,16,17-tetraazaheptacyclo[22.5.3.2^3,9.1^18,22.0^4,8.0^15,19.0^27,31]pentatriaconta-3,8,16,18(33),19,21,24,26,31,34-decaen-23-yl]acetic acid], for which the inhibition at 0.1 µM in experiment [1] was determined as 100%. The fold induction at 3 mg/kg in the experiment on Nqo1 mRNA (Kidney) was determined as 6.8.
`Cc1c2ccc3c1nnn3CCCCCc1ccc(c3c1OC(C)(C)C3)C(=O)N1CCc3ccc(cc3C1)C2CC(=O)O` (racemic) [Example 5, [6,6,33-Trimethyl-2-oxo-7-oxa-1,15,16,17-tetraazaheptacyclo[22.5.3.2^3,9.1^18,22.0^4,8.0^15,19.0^27,31]pentatriaconta-3,8,16,18(33),19,21,24,26,31,34-decaen-23-yl]acetic acid]: in experiment [1], the inhibition at 0.1 µM came to 100%. Besides, the fold induction at 3 mg/kg in the experiment on Nqo1 mRNA (Kidney) came out at 3.3.
For `Cc1c2ccc3c1nnn3CCCCCc1ccc(c3c1CCO3)C(=O)N1CCc3ccc(cc3C1)C2CC(=O)O` (racemic) [Example 7, [33-Methyl-2-oxo-5-oxa-1,15,16,17-tetraazaheptacyclo[22.5.3.2^3,9.1^18,22.0^4,8.0^15,19.0^27,31]pentatriaconta-3,8,16,18(33),19,21,24,26,31,34-decaen-23-yl]acetic acid], in that order: 100% and 4.3.
Turning to `Cc1c2ccc3c1nnn3CCCCCc1ccc(c(Cl)c1)C(=O)N1CCc3ccc(cc3C1)C2CC(=O)O` (racemic) [Example 9, [18-Chloro-32-methyl-20-oxo-8,9,10,21-tetraazahexacyclo[19.5.3.2^16,19.1^3,7.0^6,10.0^24,28]dotriaconta-1(26),3(32),4,6,8,16,18,24,27,30-decaen-2-yl]acetic acid], in experiment [1], the inhibition at 0.1 µM is 100%. In addition, the fold induction at 3 mg/kg in the experiment on Nqo1 mRNA (Kidney) was found to be 5.5.
For the molecule `Cc1c2ccc3c1nnn3CCCCCc1ccc(c(F)c1)C(=O)N1CCc3ccc(cc3C1)C2CC(=O)O` (racemic) [Example 10, [18-Fluoro-32-methyl-20-oxo-8,9,10,21-tetraazahexacyclo[19.5.3.2^16,19.1^3,7.0^6,10.0^24,28]dotriaconta-1(26),3(32),4,6,8,16,18,24,27,30-decaen-2-yl]acetic acid], the inhibition at 0.1 µM in experiment [1] amounted to 100%. For the same molecule, the fold induction at 3 mg/kg in the experiment with Nqo1 mRNA (Kidney) was 5.9.
As to `Cc1c2ccc3c1nnn3CCCOCc1ccc(c(F)c1)C(=O)N1CCc3ccc(cc3C1)C2CC(=O)O` (racemic) [Example 21, [18-Fluoro-32-methyl-20-oxo-14-oxa-8,9,10,21-tetraazahexacyclo[19.5.3.2^16,19.1^3,7.0^6,10.0^24,28]dotriaconta-1(26),3(32),4,6,8,16,18,24,27,30-decaen-2-yl]acetic acid], the inhibition at 0.1 µM in experiment [1] was 100%. Besides, in the experiment on Nqo1 mRNA (Kidney), the fold induction at 3 mg/kg was 5.
In the case of `Cc1c2ccc3c1nnn3CCOCCc1ccc(cc1)C(=O)N1CCc3ccc(cc3C1)C2CC(=O)O` (racemic) [Example 29, [32-Methyl-20-oxo-13-oxa-8,9,10,21-tetraazahexacyclo[19.5.3.2^16,19.1^3,7.0^6,10.0^24,28]dotriaconta-1(26),3(32),4,6,8,16,18,24,27,30-decaen-2-yl]acetic acid], the inhibition at 0.1 µM in experiment [1] stood at 100%. Further, in the experiment on Nqo1 mRNA (Kidney), the fold induction at 3 mg/kg amounted to 5.9.
`Cc1c2ccc3c1nnn3CCCCCc1ccc(cc1)C(=O)N1CCc3ccc(cc3C1)C2CC(=O)O` (centres unmarked) [Example 11, [32-Methyl-20-oxo-8,9,10,21-tetraazahexacyclo[19.5.3.2^16,19.1^3,7.0^6,10.0^24,28]dotriaconta-1(26),3(32),4,6,8,16,18,24,27,30-decaen-2-yl]acetic acid]: the inhibition at 0.1 µM in experiment [1] stood at 100%. For the same molecule, in the experiment on Nqo1 mRNA (Kidney), the fold induction at 3 mg/kg is 8.
For `Cc1c2ccc3c1nnn3CCCOCc1ccc(cc1)C(=O)N1CCc3ccc(cc3C1)C2CC(=O)O` (centres unmarked) [Example 25, [32-Methyl-20-oxo-14-oxa-8,9,10,21-tetraazahexacyclo[19.5.3.2^16,19.1^3,7.0^6,10.0^24,28]dotriaconta-1(26),3(32),4,6,8,16,18,24,27,30-decaen-2-yl]acetic acid], the inhibition at 0.1 µM in experiment [1] worked out at 100%. The values for the fold induction at 3 mg/kg with Nqo1 mRNA (Kidney) and in the experiment with Nqo1 mRNA (Liver) were 6.5 and 22.2, respectively.
For `Cc1c2ccc3c1nnn3CCCOCc1ccc(cc1)C(=O)N1CCc3ccc(cc3C1)C2C(C)(C)C(=O)O` (centres unmarked) [Example 55, 2-methyl-2-[32-methyl-20-oxo-14-oxa-8,9,10,21-tetrazahexacyclo[19.5.3.2^16,19.1^3,7.0^6,10.0^24,28]dotriaconta-1(27),3(32),4,6,8,16,18,24(28),25,30-decaen-2-yl]propanoic acid], the inhibition at 0.1 µM in experiment [1] was found to be 100%. Moreover, the fold induction at 3 mg/kg with Nqo1 mRNA (Kidney) turned out to be 6.3.
Regarding `Cc1cc2cc(C)c1C(=O)N1CCc3ccc(cc3C1)C(C(C)(C)C(=O)O)c1ccc3c(nnn3CCCOC2)c1C` (centres unmarked) [Example 58, 2-methyl-2-[18,30,32-trimethyl-20-oxo-14-oxa-8,9,10,21-tetrazahexacyclo[19.5.3.2^16,19.1^3,7.0^6,10.0^24,28]dotriaconta-1(27),3(32),4,6,8,16(31),17,19(30),24(28),25-decaen-2-yl]propanoic acid], the inhibition at 0.1 µM in experiment [1] amounted to 100%. In addition, in the experiment on Nqo1 mRNA (Kidney), the fold induction at 3 mg/kg was found to be 4.8.
In the case of `Cc1c2ccc3c1nnn3CCCOCc1cc(Cl)c(c(Cl)c1)C(=O)N1CCc3ccc(cc3C1)C2C(C)(C)C(=O)O` (centres unmarked) [Example 60, 2-[18,30-dichloro-32-methyl-20-oxo-14-oxa-8,9,10,21-tetrazahexacyclo[19.5.3.2^16-19.1^3,7.0^6,10.0^24,28]dotriaconta-1(27),3(32),4,6,8,16,18,24(28),25,30-decaen-2-yl]-2-methylpropanoic acid], the inhibition at 0.1 µM in experiment [1] came to 100%. Also, in the experiment with Nqo1 mRNA (Kidney), the fold induction at 3 mg/kg is 2.9.
As to `Cc1c2ccc3c1nnn3CCCCCc1ccc(cc1)C(=O)N1CCc3ccc(cc3C1)C2C(C)(C)C(=O)O` (centres unmarked) [Example 62, 2-methyl-2-[32-methyl-20-oxo-8,9,10,21-tetrazahexacyclo[19.5.3.2^16,19.1^3,7.0^6,10.0^24,28]dotriaconta-1(27),3(32),4,6,8,16(31),17,19(30),24(28),25-decaen-2-yl]propanoic acid], in experiment [1], the “NRF2 binding inhibitory activity (at 100 nM)” value came to 100%. In addition, the fold induction at 3 mg/kg in the experiment on Nqo1 mRNA (Kidney) came to 6.9.
In the case of `Cc1c2ccc3c1nnn3CCCCOc1cc(Cl)c(c(Cl)c1)C(=O)N1CCc3ccc(cc3C1)C2C(C)(C)C(=O)O` (centres unmarked) [Example 65, 2-[18,30-dichloro-32-methyl-20-oxo-15-oxa-8,9,10,21-tetrazahexacyclo[19.5.3.2^16,19.1^3,7.0^6,10.0^24,28]dotriaconta-1(27),3(32),4,6,8,16(31),17,19(30),24(28),25-decaen-2-yl]-2-methylpropanoic acid], the inhibition at 0.1 µM in experiment [1] amounted to 100%. Further, the fold induction at 3 mg/kg in the experiment with Nqo1 mRNA (Kidney) was 3.6.
For the molecule `Cc1cc2cc(C)c1C(=O)N1CCc3ccc(cc3C1)C(CC(=O)O)c1ccc3c(nnn3CCCOC2)c1C` (centres unmarked) [Example 68, [18,30,32-trimethyl-20-oxo-14-oxa-8,9,10,21-tetrazahexacyclo[19.5.3.2^16,19.1^3,7.0^6,10.0^24,28]dotriaconta-1(27),3(32),4,6,8,16,18,24(28),25,30-decaen-2-yl]acetic acid], in experiment [1], the “NRF2 binding inhibitory activity (at 100 nM)” value is listed as 93%.
